Laboratory results: patent US10329294B2, “Pyrazolopyrimidine inhibitors of IRAK4 activity” (MERCK SHARP & DOHME CORP., priority 2015, dated 2019)
Where a name gives a salt, the structure may show the parent alone.

target: IRAK4 (Homo sapiens (Human), UniProt Q9NWZ3); experiment: IRAK4 Kinase Assay; type: biochemical; conditions: IMAP fluorescence polarization, 0.5 nM GST tagged IRAK4, 100 μM ATP, 30 minutes at 25° C.; read-out: IRAK4 IC50
Sequence (Q9NWZ3 whole entry): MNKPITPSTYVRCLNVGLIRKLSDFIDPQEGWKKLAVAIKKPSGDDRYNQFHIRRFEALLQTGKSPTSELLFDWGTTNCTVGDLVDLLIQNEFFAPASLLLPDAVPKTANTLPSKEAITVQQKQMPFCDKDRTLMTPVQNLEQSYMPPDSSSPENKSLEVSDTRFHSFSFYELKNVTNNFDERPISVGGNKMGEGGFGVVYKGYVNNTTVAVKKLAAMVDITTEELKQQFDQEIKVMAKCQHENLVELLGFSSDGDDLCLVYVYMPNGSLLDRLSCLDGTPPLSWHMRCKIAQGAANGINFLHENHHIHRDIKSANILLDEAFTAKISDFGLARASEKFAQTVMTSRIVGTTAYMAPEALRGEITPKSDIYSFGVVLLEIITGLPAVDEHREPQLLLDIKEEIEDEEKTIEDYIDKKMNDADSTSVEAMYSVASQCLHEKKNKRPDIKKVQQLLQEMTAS

Row | Compound | IC50 [nM]
1 | Cn1cc(NC(=O)c2cnn3ccc(N[C@@H]4CCCC(F)(F)[C@@H]4N)nc23)c(Cl)n1 [Example 150, 5-{[(1R,2R)-2-amino-3,3-difluorocyclohexyl]amino}-N-(3-chloro-1-methyl-1H-pyrazol-4-yl)pyrazolo[1,5-a]pyrimidine-3-carboxamide] | 109
2 | Cn1cc(NC(=O)c2cnn3ccc(N[C@@H]4CNCC(F)(F)C4)nc23)c(C(F)(F)F)n1 (single isomer, unassigned) [Example 218, 5-{[(3S)- or (3R)-5,5-difluoropiperidin-3-yl]amino}-N-[1-methyl-3-(trifluoromethyl)-1H-pyrazol-4-yl]pyrazolo[1,5-a]pyrimidine-3-carboxamide] | 685
3 | O=C(Nc1cn(C(F)F)nc1C(F)(F)F)c1cnn2ccc(N[C@@H]3CCCC[C@@H]3O)nc12 [Example 72, N-[1-(difluoromethyl)-3-(trifluoromethyl)-1H-pyrazol-4-yl]-5-{[(1R,2S)-2-hydroxycyclohexyl]amino} pyrazolo[1,5-a]pyrimidine-3-carboxamide trifluoroacetate] | 141
4 | N[C@H]1CCCC[C@H]1Nc1ccn2ncc(C(=O)Nc3ccsc3Cl)c2n1 [Example 116, 5-{[(1R,2S)-2-aminocyclohexyl]amino}-N-(2-chlorothiophen-3-yl)pyrazolo[1,5-a]pyrimidine-3-carboxamide trifluoroacetate] | 1
5 | Cn1cc(NC(=O)c2cnn3ccc(N4C[C@H]5CN[C@H](C5)C4)nc23)c(C(F)(F)F)n1 (single isomer, unassigned) [Example 225, 5-[(1S,5S)- or (1R,5R)-3,6-diazabicyclo[3.2.1]oct-3-yl]-N-[1-methyl-3-(trifluoromethyl)-1H-pyrazol-4-yl]pyrazolo[1,5-a]pyrimidine-3-carboxamide] | 310
6 | CC(C)n1cc(NC(=O)c2cnn3ccc(N[C@@H]4CCCC(F)(F)[C@@H]4N)nc23)c(C(F)(F)F)n1 [Example 56, 5-{[(1R,2R)-2-amino-3,3-difluorocyclohexyl]amino}-N-[1-(1-methylethyl)-3-(trifluoromethyl)-1H-pyrazol-4-yl]pyrazolo[1,5-a]pyrimidine-3-carboxamide trifluoroacetate] | 626
7 | Cn1cc(NC(=O)c2cnn3ccc(N4C5CNCC4C5)nc23)c(C(F)(F)F)n1 [Example 214, 5-(3,6-diazabicyclo[3.1.1]hept-6-yl)-N-[1-methyl-3-(trifluoromethyl)-1H-pyrazol-4-yl]pyrazolo[1,5-a]pyrimidine-3-carboxamide] | 38
8 | Cn1cc(NC(=O)c2cnn3ccc(N4CCCNC5(CC5)C4)nc23)c(C(F)(F)F)n1 [Example 227, 5-(4,8-diazaspiro[2.6]non-8-yl)-N-[1-methyl-3-(trifluoromethyl)-1H-pyrazol-4-yl]pyrazolo[1,5-a]pyrimidine-3-carboxamide] | 451
9 | Cn1cc(NC(=O)c2cnn3ccc(N[C@H]4CCCCNC4)nc23)c(C(F)(F)F)n1 (single isomer, unassigned) [Example 159, 5-[(3S)- or (3R)-azepan-3-ylamino]-N-[1-methyl-3-(trifluoromethyl)-1H-pyrazol-4-yl]pyrazolo[1,5-a]pyrimidine-3-carboxamide trifluoroacetate] | 18
10 | CC(C)n1cc(NC(=O)c2cnn3ccc(N4CC5CCC4CN5)nc23)c(C(F)(F)F)n1 (stereo not drawn) [Example 53, 5-(2,5-diazabicyclo[2.2.2]oct-2-yl)-N-[1-(1-methylethyl)-3-(trifluoromethyl)-1H-pyrazol-4-yl]pyrazolo[1,5-a]pyrimidine-3-carboxamide] | 48
11 | Cn1cc(NC(=O)c2cnn3ccc(N[C@@H]4CNCC[C@@H]4F)nc23)c(C(F)(F)F)n1 (single isomer, unassigned) [Example 230, 5-{[(3R,4S)- or (3S,4R)-4-fluoropiperidin-3-yl]amino}-N-[1-methyl-3-(trifluoromethyl)-1H-pyrazol-4-yl]pyrazolo[1,5-a]pyrimidine-3-carboxamide] | 0.5

Further lines, results first:

Row | IC50 [nM] | Compound
12 | 2100 | N[C@@H]1[C@H](Nc2ccn3ncc(C(=O)Nc4ccccc4C(F)F)c3n2)CCCC1(F)F [Example 132, 5-{[(1R,2R)-2-amino-3,3-difluorocyclohexyl]amino}-N-[2-(difluoromethyl)phenyl] pyrazolo[1,5-a]pyrimidine-3-carboxamide trifluoroacetate]
13 | 33 | Cn1cc(NC(=O)c2cnn3ccc(N4CCCNCC45CC5)nc23)c(C(F)(F)F)n1 [Example 98, 5-(4,8-diazaspiro[2.6]non-4-yl)-N-[1-methyl-3-(trifluoromethyl)-1H-pyrazol-4-yl]pyrazolo[1,5-a]pyrimidine-3-carboxamide trifluoroacetate]
14 | 55 | O=C(Nc1cn(C(F)F)nc1C(F)(F)F)c1cnn2ccc(N3CCNCC3)nc12 [Example 300, N-[1-(difluoromethyl)-3-(trifluoromethyl)-1H-pyrazol-4-yl]-5-piperazin-1-ylpyrazolo[1,5-a]pyrimidine-3-carboxamide trifluoroacetate]
15 | 0.5 | Cn1cc(NC(=O)c2cnn3ccc(N[C@@H]4CCCNC4)nc23)c(C(F)(F)F)n1 [Example 9, N-[1-methyl-3-(trifluoromethyl)-1H-pyrazol-4-yl]-5-[(3R)-piperidin-3-ylamino]pyrazolo[1,5-a]pyrimidine-3-carboxamide trifluoroacetate]
16 | 71 | Cn1cc(NC(=O)c2cnn3ccc(N4CCNC(C)(C)C4)nc23)c(C(F)(F)F)n1 [Example 30, 5-(3,3-dimethylpiperazin-1-yl)-N-[1-methyl-3-(trifluoromethyl)-1H-pyrazol-4-yl]pyrazolo[1,5-a]pyrimidine-3-carboxamide trifluoroacetate]
17 | 589 | CN1CCN(c2ccn3ncc(C(=O)Nc4cn(C)nc4C(F)(F)F)c3n2)C(C)(C)C1 [Example 35, N-[1-methyl-3-(trifluoromethyl)-1H-pyrazol-4-yl]-5-(2,2,4-trimethylpiperazin-1-yl)pyrazolo[1,5-a]pyrimidine-3-carboxamide trifluoroacetate]
18 | 70 | Cn1cc(NC(=O)c2cnn3ccc(N[C@@H]4CCCC(F)(F)[C@@H]4N)nc23)c(C#N)n1 [Example 126, 5-{[(1R,2R)-2-amino-3,3-difluorocyclohexyl]amino}-N-(3-cyano-1-methyl-1H-pyrazol-4-yl)pyrazolo[1,5-a]pyrimidine-3-carboxamide trifluoroacetate]
19 | 143 | N#Cc1ccccc1NC(=O)c1cnn2ccc(N3CCC[C@@H](N)C3)nc12 [Example 269, 5-[(3R)-3-aminopiperidin-1-yl]-N-(2-cyanophenyl)pyrazolo[1,5-a]pyrimidine-3-carboxamide trifluoroacetate]
20 | 9 | N[C@@H]1CCCC[C@@H]1Nc1ccn2ncc(C(=O)Nc3cnn(-c4cccnc4)c3)c2n1 [Example 278, 5-{[(1S,2R)-2-aminocyclohexyl]amino}-N-(1-pyridin-3-yl-1H-pyrazol-4-yl)pyrazolo[1,5-a]pyrimidine-3-carboxamide trifluoroacetate]

same assay, conditions: IRAK4 IC50 (nM), IMAP fluorescence polarization, 0.5 nM GST tagged IRAK4, 100 μM ATP, 30 minutes at 25° C.

Row | Compound | IC50 [nM]
21 | Cn1cc(NC(=O)c2cnn3ccc(N4CCNC5(CC4)CC5)nc23)c(C(F)(F)F)n1 [Example 220, 5-(4,7-diazaspiro[2.6]non-7-yl)-N-[1-methyl-3-(trifluoromethyl)-1H-pyrazol-4-yl]pyrazolo[1,5-a]pyrimidine-3-carboxamide trifluoroacetate] | 153
